# Laboratory results: patent US7361638B2, “Pharmaceutical combination for the treatment of tissue damage owing to an arterial irrigation defect” (Centro de Ingenieria Genetica y Biotecnologia, priority 2001, dated 2008)
# “Also recorded” adds a separate entry of the source. Marks after values point to notes of the source that are not given here. Non-standard residues stand in square brackets, D forms with d. No end group written: not given here.
# Assays:
# [1] = tested on: rat model of renal bilateral ischemia/reperfusion; test: Renal bilateral ischemia/reperfusion, first phase (1 hour ischemia, 3 hour reperfusion); format: in vivo, Wistar rats; conditions: 1 h ischemia, 3 h reperfusion; for Glomerular Filtration Rate / Renal Plasmatic Flow / Urine output during the reperfusion period: EGF 20 μg; for Glomerular Filtration Rate / Renal Plasmatic Flow: GHRP-6 50 μg, combination EGF 5 μg + GHRP-6 10 μg per rat i.p.; for Urine output during the reperfusion period: i.p. 30 min before ischemia, GHRP 50 μg, combination EGF 5 μg + GHRP-6 10 μg per rat, mean and SD; for Renal failure / oliguria, result in words: versus saline-treated ischemic controls
# Protocol: The potential nephroprotective effects of each of the peptides alone or in combination was studied in a rat model of renal bilateral ischemia/reperfusion. In a first phase trial, a ischemia period of 1 hour followed by a 3 hour reperfusion period was established. Female Wistar rats (200-220 g) were randomly assigned to the following experimental groups (N=10):
# Group II: Ischemic and normal saline solution 0.9%.
# Group IV: Ischemic and GHRP −6-50 μg/rat.
# All the treatments were intraperitoneally administered 30 minutes before ischemia.
# (§1) Renal arteries were clamped with microvascular clamps (Moria, Fine Science Tools, USA) for 60 minutes. After 3 hours of reperfusion the animals were monitored for another 30 minutes to establish renal functioning.
# (§2) Glomerular filtration rate (GFR) and the renal plasmatic flow (RPF) were studied using molecular weight markers as inulin and p-amino hypuric. Clearance coefficients were determined as follows:
# Uv(m) maximal urine volume per minute. […]
# (§3) A catheter was fixed in the urinary bladder and the urethra was clamped. The free end of the catheter was inserted in a graduated tube and the urine volume was collected during 10 minutes.
# Renal tissue samples were homogenized in KCI/histidine (pH7.3) buffer and the supernatant was used to measure the activity of the enzymes PLA2, catalase, as the MDA reactive metabolite.
# Renal tissue samples were fixed in 10% buffered formalin, paraffin embedded, H&E stained and studied by independent pathologists using the following criteria: number of collapsed glomeruli, cortical hemorrhage, medullar hemorrhage, severe tubular damage, and severe interstitial damage. […] GHRP-6 intervention increased urine formation 4 times as compared to saline treated animals, which argues in favor of renal functional protection.
# [2] = tested on: rat model of renal bilateral ischemia/reperfusion; test: Renal ischemia/reperfusion, second phase (3 hours ischemia, similar reperfusion time); format: in vivo, Wistar rats; conditions: 3 h ischemia; for Urine output during the reperfusion period: EGF 20 μg, GHRP 50 μg, combination, mean and SD
# Protocol: as §1, §2, §3
# Renal tissue samples were fixed in 10% buffered formalin, paraffin embedded, H&E stained and studied by independent pathologists using the following criteria: number of collapsed glomeruli, cortical hemorrhage, medullar hemorrhage, severe tubular damage, and severe interstitial damage.
# During a second phase study, a larger ischemia period was introduced which allowed for studying the effect of the peptide in a more practical model with respect to the clinical practice. Kidneys were exposed to a 3 hours ischemia period and a similar reperfusion time.
# [3] = tested on: Experimental Model of Multiple Organ Damage by Extensive Burns; test: Multiple organ damage by extensive burns (25% body surface scald), intestinal regeneration; format: in vivo, Balb/c mice; conditions: for Final weight (body weight) / % Increase of body weight: 10th day following scalding; for Final weight (body weight): after 20 administrations, table prints EGF 0.01 μg, GHRP 0.01 μg, mean and SD, in g (unit assumed); for Crypts depth / No. of crypts in fission (×200) / Villous height / No. of metaphases per crypt (×200): day 10 post-scalding; for % Increase of body weight: initial to final weight; for No. of metaphases per crypt (×200): vincristine 1 mg/kg six hours prior to death
# Protocol: The dorsal region of Balb/c mice (22-25 g) was depilated and subjected to hypodermic scalding involving a 25% of body surface area, by immersion in equilibrated water at 95-97° C. for 5 seconds. All the mice received 1.5 ml of normal saline solution as fluid resuscitation immediately after. This animal model had been previously established and calibrated in our laboratory, and is useful to our goals as extensive internal changes are steadily reproduced. On the next 24 hours the surviving mice were randomly assigned to the following groups: Reference. Sham burned mice receiving saline 0.9% (N=5). Scalded receiving only normal saline 0.9%. […] Scalded and treated with GHRP-6 (N=9; 0.1 μg GHRP-6/animal). Scalded, treated with the peptide combination (N=10). […] Administrations were done twice a day and until day 10 post-scalding. Once the treatments were completed, animals were weighed again and euthanized for necropsy and microscopic examination. Six hours prior to death, every mouse received an injection of vincristine (1 mg/kg) to arrest cells on metaphase. Intestines were resected, flushed and weighed. Fragments were collected for total DNA and protein content. Other fragments were formalin fixed and used for routine processing or intestinal microdissection of villi and crypts. Morphometric procedures on the microscopic slides were derived from the […] image processing system. The following parameters were considered in this study: Animal weight. Intestinal weight, protein and DNA content. Number of cells in metaphase per crypt. Number of branching crypts. Villous height. Crypts depth.
# [4] = tested on: Intestinal Ischemia/Reperfusion Model; test: Intestinal ischemia/reperfusion model (2 hours ischemia, 3 hours reperfusion); format: in vivo, Sprague Dawley rats; conditions: 2 h ischemia, 3 h reperfusion
# Protocol: Male Sprague Dawley (220-250 g) rats were randomly assigned to the following treatment groups: I: ischemia/normal saline. […] III: Ischemia/GHRP-6 100 μg/rat. IV: Ischemia/combination -EGF (5 μg)/GHRP-6 (2 μg)/rat. All the treatments were intraperitoneally administered 30 minutes prior to beginning the ischemia period. […] The artery was clamped for a period of 2 hours, thus provoking a severe ischemia time on the jejunum and ileum portions of the small intestine. Reperfusion was allowed for 3 hours. Rats were euthanized and subjected to complete autopsy. The small intestine was resected and the length of hemorrhagic mucosal and/or luminal damage was registered. Luminal content was flushed out with a standard volume of saline to determine the hemoglobin content. Intestinal mucosa was washed with warm normal saline, weighed and fragments used to determine total protein content by Lowry method. Other fragments were used for total DNA content and microscopic analysis. Villi/mucosal damage was microscopically analyzed as described by Chiu. This scale considers Grade 0 as intact mucosa progressing to Grade 5 as full-thickness denudation.
# [5] = tested on: Intestinal Ischemia/Reperfusion Model; test: Survival after intestinal ischemia/reperfusion, monitored for 96 hours; format: in vivo, Sprague Dawley rats; conditions: 96 hours of reperfusion; N = 10; EGF 500 μg, GHRP-6 100 μg, EGF 5 μg + GHRP-6 2 μg
# Protocol: In order to fully elucidate the protective effect of the combination treatment in this model of intestinal ischemia/reperfusion, survival was monitored until 96 hours of reperfusion.
# A second and independent experiment was conducted in order to learn if the combination stimulated animals' survival. Experimental methodology is as described above. All the rats received an intraperitoneal injection of lactated Ringer following wound closure. Animals were monitored for 96 hours once reperfusion was initiated. […] (Table 9).
# [6] = tested on: gastric mucosa of animals exposed to a severe systemic stress; test: Acute gastric stress damage model (cold swim and restraint); format: in vivo, OF-1 mice
# Protocol: Adult, male OF-1 mice (20-23 g) were randomly assigned to receive GHRP-6 (0.1 μg/animal) or normal saline solution 0.9% (both i.p.). Ten to thirty minutes later animals were forced to swim in cold water for 30 minutes and later restrained for another 20 minute period at 4° C. Animals were thereafter anesthetized and euthanized for gastric mucosa inspection. Samples were fixed in 10% buffered formalin and H&E, and PAS stained for microscopic examination. Erosion, hemorrhage, and ulceration were the gross pathology criteria considered in the experiment (Playford RJ. Peptides and gastrointestinal mucosa integrity. Gut 1995, 37: 595-597). Microscopic ulceration was only considered when deeper than the first third of the glandular mucosa. Luminal bleeding was studied by measuring hemoglobin by the cyano metahemoglobin method (Reactivos Spinreact, Barcelona). Data were expressed in g/dL. All determinations were done in a blind fashion using a sham group.
# [7] = EGF 500 μg, GHRP-6 100 μg, combination EGF 5 μg + GHRP-6 2 μg per rat i.p.
# [8] = GHRP-6 0.1 μg/animal i.p. 10-30 min before stress, 20 mice per group
Substance,Glomerular Filtration Rate [1] [ml/min/100 g],Renal Plasmatic Flow [1] [ml/min/100 g],Urine output during the reperfusion period [1],"Renal failure / oliguria, result in words [1]","Nephroprotection / urine volume, result in words [2]",Percent of animals/group showing Cortical Hemorrhage [2],Percent of animals/group showing Damaged Glomeruli [2],Percent of animals/group showing Interstitial Damage [2],Percent of animals/group showing Medullar Hemorrhage [2] [%],Urine output during the reperfusion period [2],Final weight (body weight) [3],Crypts depth [3] [μm],No. of crypts in fission (×200) [3],Villous height [3] [μm],% Increase of body weight [3] [%],No. of metaphases per crypt (×200) [3],"Intestinal mucosal protection, result in words [4]",other results
"EGF: Epidermal Growth Factor of natural, synthetic or recombinant origins",0.3 ± 0.15,1.2 ± 0.61,114 ± 51,attenuated the oliguria; also recorded: partially attenuate renal failure,negligible and contains hemoglobin,70%,80%,80%,80,83 ± 21,28.2 ± 3.3,48 ± 9,25 ± 8,118.7 ± 19,27,101 ± 35,minimal protection,"Glomerular Filtration Rate [2]: 0.24 ± 0.15 ml/min/100 g; Renal Plasmatic Flow [2]: 0.6 ± 0.05 ml/min/100 g; DMA content [4, 7]: 0.4 ± 0.11 µg/cm; Luminal hemoglobin [4, 7]: 3.5 ± 1.02 g/dL; Mucosal Weight [4, 7]: 10.7 ± 4.5 g; Proteins Content [4, 7]: 1.08 ± 0.6 mg/cm; % of intestinal damage ([4]; i.p. 30 min before ischemia, EGF 500 μg, GHRP-6 100 μg, combination EGF 5 μg + GHRP-6 2 μg per rat, mean and SD): 78.7 ± 2.8%"
H[dW]AW[dF]K-NH2 [GHRP-6],0.46 ± 0.23,1.88 ± 0.8,208 ± 47,partially attenuate renal failure,Partial nephroprotection,40♦ percent,60♦ percent,30♦ percent,80,168 ± 33,28.4 ± 1.8,40.8 ± 13,19 ± 6,99.2 ± 10,23,59 ± 12,partial protection,"Increase of urine formation compared to saline treated animals ([1]; GHRP-6 50 μg/rat i.p.): 4 times; Percent of animals/group showing Tubular Damage [2]: 50♦ percent; Survival (%) [5]: 40%; Epithelial Erosion, number of animals [6, 8]: 6; Epithelial Erosion, percent of animals [6, 8]: 30%; Luminal Hemorrhage, number of animals [6, 8]: 0 (0%)*; Luminal Hemorrhage, percent of animals [6, 8]: 0 (0%)*; Mucosal Hemorrhage, number of animals [6, 8]: 0 (0%)*; Mucosal Hemorrhage, percent of animals [6, 8]: 0 (0%)*; Total of ulcers ([6]; GHRP-6 0.1 μg/animal i.p., 20 mice per group): 3*; Luminal hemoglobin ([6]; GHRP-6 0.1 μg/animal i.p., cyano metahemoglobin method): 0* g/dL"
